Data from patent US20260115250A1, “METHODS OF TREATING AGE-RELATED MACULAR DEGENERATION” (Character Biosciences, Inc., priority 2022, published 2026).
Peptide text beside a SMILES is read from it.

Tests used:
[1] = test system: ARPE-19 cells; experiment: ARPE-19 GAG-dependent cholesterol import (with or without heparin); type: cell-based, human; details: ARPE-19, 10 μM peptide
Procedure: ARPE-19 cells were seeded on 96-well plates at 25,000 cells per well and grown to confluence. A 2× solution of 500 μM DMPC and 50 μM BODIPY-Cholesterol with or without 100 µg/mL heparin was prepared in serum free DMEM: F12. Peptides were diluted to 20 μM in serum free DMEM: F12 (a 2× solution). Peptides were added to lipid solution in equal parts (60 μL each) and incubated for 1 hour at 37° C. ARPE-19 cells were serum starved in serum free DMEM: F12 for 1 hour at 37° C. Peptide: Lipid complexes (100 μL total volume per well) were transferred to ARPE-19 cells for 2 hours at 37° C. Cells were washed, fixed, and intracellular fluorescence was read on Promega GloMax at 475 nm excitation, 500-550 emission. Fluorescence values were background corrected from no treatment conditions. Data are presented ±SD for 2 runs.

[2] = peptide binding to non-oxidized and oxidized lipids (SPR); details: immobilized peptide; RU normalized to DMPC
Procedure: FIGS. 25A-25O show peptide binding activity to non-oxidized and oxidized lipids via SPR for indicated peptides. Peptides were reconstituted to 50 μg/mL in 10 mM acetate buffer, pH 4.5 and immobilized to ˜200 RU on a CM5 chip via amine coupling. Non-oxidized lipids (DMPC & POPC) and oxidized lipids (POVPC & KOdiA-PC) were diluted to 100 µM in HBS-EP running buffer and exposed to the chip for binding (n=3) at a flow rate of […] for 120 seconds. The surface was regenerated with 20% EtOH. T-001 served as a positive control and T-031 served as a negative control on each chip. For each peptide, the RU response for all lipids was normalized to the DMPC RU values.

[3] = test system: ARPE-19 cells; experiment: ARPE-19 cell lysis (Sytox Green); type: cell-based, human; details: 3.16-100 μM peptide, 2 h
Procedure: These figures illustrate ARPE-19 cell lysis. ARPE-19 cells were grown in 96-well plates to 75-85% confluence. Peptides at 10 mM were diluted in serum-free DMEM:F12 media into a 20 μM working solution (a 2× solution). Sytox Green was prepared in serum-free DMEM:F12 at a 1 μM working solution (a 2× solution). Equivalent volumes of the peptide and Sytox Green solutions were added to empty 96-well plates and mixed gently. Final peptide concentration was 10 μM. ARPE-19 cells (˜80% confluent in 96-well plates) were washed with DPBS and then incubated in 100 μL of peptide/Sytox Green mixture for 2 h at 37° C. Cells were fixed in 4% paraformaldehyde solution in DPBS and then incubated in 10 μM Hoechst solution for 10 min, washed, and imaged on a Yokogawa CQ1 high-content imager. CellPathfinder software was used to count live/dead cells in 4 fields of view at 20× magnification. Percent (%) lysis was calculated by dividing the number of Sytox Green+ nuclei by the total number of Hoechst+ nuclei.
ARPE-19 cells were grown in 96-well plates to 75-85% confluence. Peptides at 10 mM were diluted in serum-free DMEM: F12 media to solutions between […]. Sytox Green was prepared in serum-free DMEM: F12 media at a 1 μM working solution. Equivalent volumes of the peptide and Sytox Green solutions were added to empty 96-well plates and mixed gently. Final peptide concentration was 3.16-100 μM. ARPE-19 cells (˜80% confluent in 96-well plates) were washed with DPBS and then incubated in 100 μL of peptide/Sytox Green mixture for 2 h at 37° C. Cells were fixed in 4% paraformaldehyde solution in DPBS and then incubated in 10 μM Hoechst solution for 10 min, washed, and imaged on a Yokogawa CQ1 high-content imager. CellPathfinder software was used to count live/dead cells in 4 fields of view at 20× magnification. Percent (%) lysis was calculated by dividing the number of Sytox Green+ nuclei by the total number of Hoechst+ nuclei. Non-linear regression was used to calculate EC50 values.

[4] = test system: HepG2 cells; experiment: HepG2 cholesterol import (BODIPY-Cholesterol); type: cell-based; details: HepG2, peptide:lipid complexes from 30 μM diluted 1:3
Procedure: HepG2 cells were seeded on a 96-well plate at 10,000 cells per well and grown to confluence. A solution of 500 μM DMPC and 50 μM BODIPY-Cholesterol was prepared in serum free EMEM. Peptides were diluted to 20 μM in serum free EMEM (a 2× solution). Peptides were added to lipid solution in equal parts (60 μL each) to create final 1× concentration and incubated for 1 hour at 37° C. HepG2 cells were serum starved in serum-free EMEM for 1 hour at 37° C. Peptide: Lipid complexes (100 μL total volume per well) were transferred to HepG2 cells for 2 hours at 37° C. Cells were washed, fixed, and intracellular fluorescence was read on Promega GloMax at 475 nm excitation, 500-550 emission. Fluorescence values were background corrected from no treatment conditions. Data are presented as mean+SD for two runs.
HepG2 cells were seeded on 96-well plates at 10,000 cells per well and grown to confluence. Peptide: Lipid complexes were created by preparing a solution of serum-free EMEM containing 30 μM peptide, 750 μM DMPC, and 75 μM BODIPY-Cholesterol. Peptide: Lipid complexes were serially diluted 1:3 for 5 concentrations, and incubated for 1 hour at 37° C. […] Cells were washed, fixed, and intracellular fluorescence was read on Promega GloMax at 475 nm excitation, 500-550 emission. Fluorescence values were background corrected from no treatment conditions. […]

[5] = test system: ARPE-19 cells; experiment: ARPE-19 cholesterol import (BODIPY-Cholesterol); type: cell-based, human; details: ARPE-19, 0.37-30 μM peptide, FIG. 15
Procedure: FIG. 12 and FIGS. 14A-14B illustrate the results of ARPE-19 cholesterol import testing. ARPE-19 cells were seeded on 96-well plates at 25,000 cells per well and grown to confluence. A 2× solution of 500 μM DMPC and 50 μM BODIPY-Cholesterol were prepared in serum free DMEM: F12. Peptides were diluted to 20 μM in serum free DMEM: F12 (a 2× solution). Peptides were added to lipid solution in equal parts (60 μL each) and were incubated for 1 hour at 37° C. ARPE-19 cells were serum starved in serum free DMEM: F12 for 1 hour at 37° C. Peptide: Lipid complexes (100 μL total volume per well) were transferred to ARPE-19 cells for 2 hours at 37° C. Cells were washed, fixed, and intracellular fluorescence was read on Promega GloMax at 475 nm excitation, 500-550 emission. Fluorescence values were background corrected from no treatment conditions. Data are presented as mean+SD for two runs.
FIG. 15 illustrates ARPE-19 cholesterol import titration curves for a subset of the peptides. ARPE-19 cells were seeded on 96-well plates at 25,000 cells per well and grown to confluence. A 2× solution of 500 μM DMPC and 50 μM BODIPY-Cholesterol was prepared in serum free DMEM: F12. Peptides were diluted to 0.74-60 μM in serum free DMEM: F12 (2× solutions). Peptides were added to lipid solution in equal parts (60 μL each) to create final peptide concentrations of 0.37-30 µM and incubated for 1 hour at 37° C. ARPE-19 cells were serum starved in serum free DMEM: F12 for 1 hour at 37° C. Peptide: Lipid complexes (100 μL total volume per well) were transferred to ARPE-19 cells for 2 hours at 37° C. Cells were washed, fixed, and intracellular fluorescence was read on Promega GloMax at 475 nm excitation, 500-550 emission. Fluorescence values were background corrected from no treatment conditions. […]
ARPE-19 cells were seeded on 96-well plates at 25,000 cells per well and grown to confluence. […] Cells were washed, fixed, and intracellular fluorescence was read on Promega GloMax at 475 nm excitation, 500-550 emission. Fluorescence values were background corrected from no treatment conditions. […]

CC[C@H](C)[C@H](NC(=O)CNC(=O)[C@H](CO)NC(=O)[C@@H](NC(=O)[C@H](Cc1c[nH]c2ccccc12)NC(=O)[C@H](Cc1c[nH]cn1)NC(=O)[C@H](CCC(=O)O)NC(=O)[C@H](Cc1ccccc1)NC(=O)[C@H](CCCNC(=N)N)NC(=O)[C@H](CC(C)C)NC(=O)[C@H](CC(C)C)NC(=O)[C@H](CCCNC(=N)N)NC(=O)[C@H](CCCCN)NC(=O)[C@H](CCCNC(=N)N)NC(=O)[C@H](CC(C)C)NC(=O)[C@H](CCCCN)NC(=O)[C@H](CCCNC(=N)N)NC(=O)[C@H](CC(C)C)NC(=O)[C@@H](N)Cc1c[nH]cn1)[C@@H](C)CC)C(=O)N[C@@H](Cc1ccc(O)cc1)C(=O)N[C@@H](CO)C(=O)N[C@@H](CCC(=O)O)C(=O)N[C@@H](CS)C(=O)N[C@@H](CCCCN)C(=O)N[C@@H](Cc1c[nH]cn1)C(=O)N[C@@H](CC(C)C)C(=O)N[C@H](C(=O)N[C@@H](CCC(N)=O)C(=O)N[C@@H](CCC(=O)O)C(=O)O)[C@@H](C)CC [T-025] (H-HLRKLRKRLLRFEHWISGIYSECKHLIQE-OH; N-terminus and C-terminus assumed)
GAG dependence of cholesterol import [1]: rely on GAG binding for cholesterol import activity | binding to oxidized lipids relative to DMPC [2]: binding to at least one oxidized lipid that was equivalent or improved to binding against DMPC | EC50 [3]: 144 µM | cholesterol import titration [4]: concentration-dependent cholesterol import activity | cholesterol import titration [5]: concentration-dependent increase in cholesterol import
